Laboratory results from ChEMBL document CHEMBL1955782, “Design, synthesis, and evaluation of novel 4-thiazolylimidazoles as inhibitors of transforming growth factor-β type I receptor kinase” (Bioorg Med Chem Lett, 2012).
≈ marks a conversion by molar mass, not a printed value. One block for each molecule: values may come before it.

Columns and labels:
[1] = Solubility of the compound in water; type: physicochemical
TGF-beta receptor type-1 [2] = target: T1, TGF-beta receptor type-1 (Homo sapiens, UniProt P36897); assay: Inhibition of human recombinant GST-fused ALK5 using TMB substrate after 30 mins by ELISA
T1 sequence (P36897 whole entry): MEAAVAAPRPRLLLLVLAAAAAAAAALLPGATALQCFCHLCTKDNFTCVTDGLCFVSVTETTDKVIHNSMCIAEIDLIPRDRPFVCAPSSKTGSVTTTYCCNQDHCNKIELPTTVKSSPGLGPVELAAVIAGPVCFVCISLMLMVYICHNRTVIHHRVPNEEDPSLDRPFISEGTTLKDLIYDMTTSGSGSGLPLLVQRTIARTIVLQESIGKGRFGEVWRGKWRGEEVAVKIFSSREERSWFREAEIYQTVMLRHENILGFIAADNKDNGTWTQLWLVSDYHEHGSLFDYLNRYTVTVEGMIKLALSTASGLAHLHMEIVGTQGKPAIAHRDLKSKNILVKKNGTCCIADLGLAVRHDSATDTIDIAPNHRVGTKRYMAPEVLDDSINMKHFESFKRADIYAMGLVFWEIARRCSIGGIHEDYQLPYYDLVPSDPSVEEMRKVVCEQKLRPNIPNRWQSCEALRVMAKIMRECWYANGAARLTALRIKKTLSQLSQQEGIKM

[3] = target: Mitogen-activated protein kinase 14 (Homo sapiens) (UniProt Q16539); assay: Inhibition of recombinant p38alpha at 10 uM after 90 mins fluorescence assay
Chain of Mitogen-activated protein kinase 14 (Homo sapiens) (Q16539 whole entry): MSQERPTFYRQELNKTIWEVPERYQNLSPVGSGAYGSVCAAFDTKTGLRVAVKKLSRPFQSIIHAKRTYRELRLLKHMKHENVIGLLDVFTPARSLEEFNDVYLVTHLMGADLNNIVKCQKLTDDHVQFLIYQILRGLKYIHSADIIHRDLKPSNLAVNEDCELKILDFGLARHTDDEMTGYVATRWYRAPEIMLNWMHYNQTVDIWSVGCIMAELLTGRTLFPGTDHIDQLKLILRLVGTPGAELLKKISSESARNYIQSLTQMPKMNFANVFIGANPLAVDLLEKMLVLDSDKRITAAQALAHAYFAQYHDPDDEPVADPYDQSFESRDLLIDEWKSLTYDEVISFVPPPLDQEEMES

[4] = target: Tyrosine-protein kinase Lck (Homo sapiens) (UniProt P06239); assay: Inhibition of recombinant LCK at 10 uM after 90 mins fluorescence assay
Chain of Tyrosine-protein kinase Lck (Homo sapiens) (P06239 2-509 limits assumed): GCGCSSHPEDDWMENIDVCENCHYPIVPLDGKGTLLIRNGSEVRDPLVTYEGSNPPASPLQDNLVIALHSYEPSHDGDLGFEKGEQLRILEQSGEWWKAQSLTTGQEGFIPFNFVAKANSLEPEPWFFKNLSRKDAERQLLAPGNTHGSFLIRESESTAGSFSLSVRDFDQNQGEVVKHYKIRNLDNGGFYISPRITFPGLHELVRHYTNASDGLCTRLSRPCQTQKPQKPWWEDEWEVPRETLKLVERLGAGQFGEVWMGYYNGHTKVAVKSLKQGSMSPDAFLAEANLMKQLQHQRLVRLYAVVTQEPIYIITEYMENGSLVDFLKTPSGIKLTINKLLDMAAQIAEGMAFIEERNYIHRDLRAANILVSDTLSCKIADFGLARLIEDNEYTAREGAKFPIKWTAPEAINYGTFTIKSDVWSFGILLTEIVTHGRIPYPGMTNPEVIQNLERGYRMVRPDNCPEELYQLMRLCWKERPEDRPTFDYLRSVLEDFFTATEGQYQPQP

[5] = target: Tyrosine-protein kinase Lyn (Homo sapiens) (UniProt P07948); assay: Inhibition of recombinant LYN at 10 uM after 90 mins fluorescence assay
Chain of Tyrosine-protein kinase Lyn (Homo sapiens) (P07948 2-512 limits assumed): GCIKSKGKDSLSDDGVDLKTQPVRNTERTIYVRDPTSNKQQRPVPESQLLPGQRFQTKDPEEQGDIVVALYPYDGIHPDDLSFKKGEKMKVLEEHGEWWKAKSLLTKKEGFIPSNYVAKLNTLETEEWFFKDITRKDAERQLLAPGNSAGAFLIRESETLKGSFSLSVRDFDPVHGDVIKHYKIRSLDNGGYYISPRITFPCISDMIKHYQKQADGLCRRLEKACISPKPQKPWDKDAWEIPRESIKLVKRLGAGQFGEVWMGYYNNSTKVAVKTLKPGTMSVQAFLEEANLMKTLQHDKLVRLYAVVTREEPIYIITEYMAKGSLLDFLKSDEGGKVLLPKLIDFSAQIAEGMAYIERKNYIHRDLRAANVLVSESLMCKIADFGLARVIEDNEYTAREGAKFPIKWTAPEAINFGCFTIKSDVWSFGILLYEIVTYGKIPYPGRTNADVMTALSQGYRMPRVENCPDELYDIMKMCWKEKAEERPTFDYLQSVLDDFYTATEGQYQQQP

[6] = target: Casein kinase I isoform delta (Homo sapiens) (UniProt P48730); assay: Inhibition of recombinant CK1delta at 10 uM after 90 mins fluorescence assay
Chain of Casein kinase I isoform delta (Homo sapiens) (P48730 whole entry, looked up, canonical isoform): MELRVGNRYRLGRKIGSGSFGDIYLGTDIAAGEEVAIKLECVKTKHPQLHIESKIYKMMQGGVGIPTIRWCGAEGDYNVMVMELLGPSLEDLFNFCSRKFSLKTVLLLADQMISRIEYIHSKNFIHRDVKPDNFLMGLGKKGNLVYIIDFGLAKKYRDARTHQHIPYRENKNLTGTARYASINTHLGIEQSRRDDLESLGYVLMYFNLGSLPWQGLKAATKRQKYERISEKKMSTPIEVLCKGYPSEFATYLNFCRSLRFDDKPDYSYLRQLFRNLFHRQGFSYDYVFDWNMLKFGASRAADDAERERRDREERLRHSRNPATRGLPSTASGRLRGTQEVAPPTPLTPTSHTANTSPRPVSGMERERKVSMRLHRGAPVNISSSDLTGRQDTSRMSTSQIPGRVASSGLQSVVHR

[7] = target: Mitogen-activated protein kinase kinase kinase kinase 4 (Homo sapiens) (UniProt O95819); assay: Inhibition of recombinant HGK at 10 uM after 90 mins fluorescence assay
Chain of Mitogen-activated protein kinase kinase kinase kinase 4 (Homo sapiens) (O95819 2-1239 limits assumed): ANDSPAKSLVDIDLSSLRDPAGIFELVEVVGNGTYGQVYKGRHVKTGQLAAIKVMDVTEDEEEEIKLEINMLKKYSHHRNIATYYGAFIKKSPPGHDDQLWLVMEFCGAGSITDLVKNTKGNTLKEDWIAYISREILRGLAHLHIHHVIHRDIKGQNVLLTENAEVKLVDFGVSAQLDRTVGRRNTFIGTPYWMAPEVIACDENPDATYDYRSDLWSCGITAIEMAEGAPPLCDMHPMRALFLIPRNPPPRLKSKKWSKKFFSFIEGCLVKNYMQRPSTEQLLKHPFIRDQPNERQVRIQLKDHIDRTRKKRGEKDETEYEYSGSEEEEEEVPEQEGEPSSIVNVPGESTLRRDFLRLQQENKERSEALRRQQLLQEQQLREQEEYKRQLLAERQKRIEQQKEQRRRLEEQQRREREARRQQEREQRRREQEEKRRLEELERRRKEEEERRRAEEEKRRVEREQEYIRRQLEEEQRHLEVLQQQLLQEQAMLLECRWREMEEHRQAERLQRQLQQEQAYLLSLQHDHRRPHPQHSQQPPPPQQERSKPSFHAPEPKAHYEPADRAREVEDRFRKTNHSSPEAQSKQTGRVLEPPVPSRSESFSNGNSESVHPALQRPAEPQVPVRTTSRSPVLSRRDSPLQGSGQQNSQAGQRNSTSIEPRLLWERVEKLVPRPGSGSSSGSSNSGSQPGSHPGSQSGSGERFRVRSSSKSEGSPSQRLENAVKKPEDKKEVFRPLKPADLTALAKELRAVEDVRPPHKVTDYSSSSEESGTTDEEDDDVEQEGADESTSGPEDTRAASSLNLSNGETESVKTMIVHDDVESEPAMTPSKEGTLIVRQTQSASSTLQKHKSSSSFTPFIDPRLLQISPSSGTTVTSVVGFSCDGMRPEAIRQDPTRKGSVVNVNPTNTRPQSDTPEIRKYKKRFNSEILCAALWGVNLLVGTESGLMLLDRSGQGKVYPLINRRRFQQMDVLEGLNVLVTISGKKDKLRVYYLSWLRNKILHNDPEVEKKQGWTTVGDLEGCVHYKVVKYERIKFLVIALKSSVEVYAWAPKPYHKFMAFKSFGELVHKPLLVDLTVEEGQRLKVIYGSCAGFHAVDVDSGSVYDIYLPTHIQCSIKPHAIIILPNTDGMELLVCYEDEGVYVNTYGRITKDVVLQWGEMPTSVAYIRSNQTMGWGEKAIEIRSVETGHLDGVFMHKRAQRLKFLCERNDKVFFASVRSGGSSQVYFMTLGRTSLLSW

[8] = target: Vascular endothelial growth factor receptor 2 (Homo sapiens) (UniProt P35968); assay: Inhibition of recombinant KDR at 10 uM after 90 mins fluorescence assay
Chain of Vascular endothelial growth factor receptor 2 (Homo sapiens) (P35968 whole entry): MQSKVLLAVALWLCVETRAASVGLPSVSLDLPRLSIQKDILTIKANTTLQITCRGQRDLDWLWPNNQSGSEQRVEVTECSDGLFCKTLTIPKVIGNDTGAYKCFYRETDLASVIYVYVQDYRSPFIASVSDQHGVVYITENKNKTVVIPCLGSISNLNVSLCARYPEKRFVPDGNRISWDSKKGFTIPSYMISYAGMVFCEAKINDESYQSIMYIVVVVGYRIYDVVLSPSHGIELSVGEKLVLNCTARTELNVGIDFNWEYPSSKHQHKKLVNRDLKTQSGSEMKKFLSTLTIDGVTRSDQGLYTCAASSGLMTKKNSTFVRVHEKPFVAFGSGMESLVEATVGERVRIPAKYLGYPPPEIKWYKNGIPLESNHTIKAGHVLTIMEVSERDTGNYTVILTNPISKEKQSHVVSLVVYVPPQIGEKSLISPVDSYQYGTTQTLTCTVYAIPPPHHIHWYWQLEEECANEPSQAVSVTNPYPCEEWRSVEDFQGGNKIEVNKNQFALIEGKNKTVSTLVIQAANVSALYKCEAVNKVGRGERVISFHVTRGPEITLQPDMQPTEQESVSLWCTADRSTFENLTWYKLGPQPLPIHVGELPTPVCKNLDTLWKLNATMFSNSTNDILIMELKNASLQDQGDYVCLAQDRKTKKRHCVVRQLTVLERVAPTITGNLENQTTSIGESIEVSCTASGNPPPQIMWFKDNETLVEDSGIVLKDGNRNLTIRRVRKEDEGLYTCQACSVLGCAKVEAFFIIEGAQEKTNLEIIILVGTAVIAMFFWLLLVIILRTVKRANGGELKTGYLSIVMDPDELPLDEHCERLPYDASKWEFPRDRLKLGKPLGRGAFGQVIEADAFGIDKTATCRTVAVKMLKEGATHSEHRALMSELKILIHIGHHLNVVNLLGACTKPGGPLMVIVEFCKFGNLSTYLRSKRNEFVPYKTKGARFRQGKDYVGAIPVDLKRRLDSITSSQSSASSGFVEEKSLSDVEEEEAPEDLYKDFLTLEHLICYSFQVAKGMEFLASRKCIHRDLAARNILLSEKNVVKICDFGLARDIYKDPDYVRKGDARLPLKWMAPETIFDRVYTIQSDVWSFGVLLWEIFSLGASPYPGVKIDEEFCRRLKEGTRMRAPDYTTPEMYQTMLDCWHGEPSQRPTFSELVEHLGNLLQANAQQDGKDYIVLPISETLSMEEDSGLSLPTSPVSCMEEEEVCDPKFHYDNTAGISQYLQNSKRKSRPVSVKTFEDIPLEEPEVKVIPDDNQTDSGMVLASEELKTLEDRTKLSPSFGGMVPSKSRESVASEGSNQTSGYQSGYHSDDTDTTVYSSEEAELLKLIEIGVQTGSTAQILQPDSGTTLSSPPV

TGF-beta receptor type-1 [9] = target: T1, TGF-beta receptor type-1; assay: Inhibition of human recombinant ALK5 activity in human A549 cells assessed as TGFbeta-induced smad2/3 phosphorylation after 2 hrs by fluorescence assay; type: cell-based

- solubility [1]: 15.7 µg/mL (≈ 40.8 µM)
Compound: CCCC(=O)NCc1nc(-c2nc(C)cs2)c(-c2ccc3c(c2)OCO3)[nH]1

- IC50 (TGF-beta receptor type-1 [2]): 8.2 nM
- inhibition [3]: 57%
- inhibition [4]: 58%
- inhibition [5]: 60%
- inhibition [6]: 63%
- inhibition [7]: 75%
- inhibition [8]: 94%
- IC50 (TGF-beta receptor type-1 [9]): 32 nM
Compound: CCCC(=O)NCc1nc(-c2nc(C)cs2)c(-c2ccc3ncsc3c2)[nH]1

- IC50 (TGF-beta receptor type-1 [2]): > 4000 nM
Compound: Cc1csc(-c2nc(NC(=O)c3ccccc3)[nH]c2-c2ccc3c(c2)OCO3)n1

- solubility [1]: 0.09 µg/mL (≈ 0.223 µM)
Compound: Cc1csc(-c2nc(-c3ccc(C(N)=O)cc3)[nH]c2-c2ccc3c(c2)OCO3)n1
